Experimental findings from patent US5250735A, “2-(N-substituted-aminoalkyl)-5-(E)-alkylidene cyclopentanones, 2-(N-substituted-aminoalkyl)-5-(E)-arylalkylidene cyclopentanones, and derivatives thereof” (priority 1992, dated 1993) are described below.

Series [1] has as its system Ehrlich ascites carcinoma. Put plainly: Antitumor effect on Ehrlich ascites carcinoma, survival. The conditions noted are these: 20 mg/kg/day intraperitoneal, 9 days. It is filed as in vivo, ICR mice. How it is done: Antitumor effect was measured on Ehrlich ascites carcinoma. Ehrlich ascites carcinoma cells were intraperitoneally administered to ICR mice. After 24 hours, 20 mg/kg/day of the compound whose synthesis is illustrated in Example 1 and Example 2 were each administered to the mice by intraperitoneal route for 9 days. The periods of survival of these animals were examined.

For series [2], the system named is 60 human tumor cell lines. Briefly: National Cancer Institute in vitro tumor cell screen. It is filed as cell-based.
Procedure: In the assay, a candidate compound was tested for its ability to inhibit tumor cell growth. A dose response curve of percent cell growth versus compound concentration over a concentration range of 10^-9 to 10^-4 molar of each test compound was established to determine GI50, TGI and LC50. GI50 and TGI denote that cell proliferation was inhibited by 50% and 100% respectively. LC50 denotes that 50% of cell population was killed. The selectivity of a compound towards a certain type of tumor cell line was evaluated from mean graphs which compared the relative drug concentrations required to produce the same level of response (e.g. GI50) in each cell line. A differential cellular sensitivity index was calculated by taking the difference between the logarithm of GI50 (or TGI, LC50) value for a cell line versus the arithmetic mean of the logarithm of GI50 (or TGI, LC 50) value for all cell line responses measured for a given compound.
The next series is described as follows: Acute toxicity. To be noted: mouse, in vivo, 4 week old male mice. How it is done: (§1) The acute toxicity of one typical compound of this invention was measured by administering the compound to a group of 4 week old male mice.
The subject of a further series is male mice. Put plainly: Acute toxicity. To be noted: mouse, in vivo. How it is done: as §1

For orientation: GI50 means the concentration at which growth is held to half of that of the control. A word on the LD50: it is the dose at which mortality reaches 50%.

With `CCCC/C=C1\CCC(CN(C)C)C1=O.Cl` (stereo not drawn) [Compound 1, 2-Dimethylaminomethyl-5-(E)-pentylidene cyclopentanone hydrochloride], in series [1], the “average number of days of survival” value amounted to 41 ± 5.4 days, the “increase of life span (ILS %) over the control” value was determined as 173.8% and the “ratio of survival for more than 40 days” value was 9/11. The GI50 in series [2] (Homo sapiens, molar concentration, 50% inhibition of cell proliferation, mean of all cell lines, read-out: Mean response of all cell lines (Log) GI50 (converted)) was 1580 nM. For the same compound, the IC100 in series [2] (Homo sapiens, molar concentration, 100% inhibition of cell proliferation, mean of all cell lines, read-out: Mean response of all cell lines (Log) TGI (converted)) was 3.8 µM. Further, the “Differential Cellular Sensitivity GI50, tumor cell line subpanels” value in series [2] (subpanels for GI50) was “LEU;COL”. For the same compound, the “Differential Cellular Sensitivity LC50, tumor cell line subpanels” value in series [2] (subpanels for LC50) was “COL;LNS;REN”. Moreover, the “Differential Cellular Sensitivity TGI, tumor cell line subpanels” value in series [2] (subpanels for TGI) was “COL;REN”. In “Acute toxicity” (ip, intraperitoneal), this compound yielded an LD50 of 107 mg/kg. Besides, the median lethal dose (LD50) in the series “Acute toxicity” (iv, intraveneous) was determined as 52 mg/kg. For the same compound, in the series “Acute toxicity” (oral), the LD50 is 486 mg/kg. Also, the “acute toxicity (in words)” value in the series on male mice is reported as “low acute toxicity”.
